Test results as given in US5712151A, “Antifungal agent” (Merck & Co., Inc., priority 1996, dated 1998).
Values after ≈ are worked out from the molar mass of the structure shown.

Experiments:
Type in all cases: cell-based
[1] = tested on: Aspergillus fumigatus (MY5668); assay: broth microdilution assay (MIC), Aspergillus fumigatus (MY5668); conditions: read-out: Minimum Inhibitory Concentration (MIC)
Experimental: (§1) The test compound was dissolved at […] in 10% DMSO and diluted 2× into the first well to achieve a concentration of 256 μg/ml at 5% DMSO in the first well. Compounds are subsequently serially diluted 2× and cell suspension is added to each well resulting in an additional 2× dilution of compound. 75 μl of said solution is delivered to each well in column 1 of a 96-well, U-bottomed microtiter plate. The compounds in column 1 were then serially diluted two-fold to yield concentrations from 64 μg/ml to 0.03 μg/ml.
(§2) The plates containing the diluted compounds were then inoculated with 75 μl/well of the appropriate microorganism and incubated for 48 hours at 35°-37° C. with MIC (minimum inhibitory concentration) determinations carried out after 24 hours of incubation (except Cryptococcus strains which are read at 48 hours). Growth and sterility controls for each organism and sterility checks for the compounds also were carried out.

[2] = tested on: filamentous fungi (Aspergillus flavus, Fusarium oxysporum, Ustilago zeae and the like); assay: agar plate inhibition zone test with filamentous fungi; conditions: methanol solutions on agar plates; 28° C. or 37° C., 24 hours
Experimental: The compound is also useful for inhibiting the growth of filamentous fungi. Such use may be illustrated in the following tests with Aspergillus flavus, Fusarium oxysporum, Ustilago zeae and the like. Inocula for filamentous fungi are prepared by scraping the surface of stock plates maintained on potato dextrose agar with a moistened sterile dacron swab. The spores and mycelia are then suspended in 10 milliliters of sterile potato dextrose broth and adjusted to 70 percent transmission at 660 nm. The samples to be tested for production of antifungal agent are applied directly to the agar plates as methanol solutions. When the sample to be tested is crude broth, it may be centrifuged prior to application. The assay plates are then incubated at either 28° C. or 37° C. for 24 hours. Following incubation, the inhibition zones are measured. Growths are also noted as to appearance.

panel of fungi = assay: broth microdilution assay (MIC and MFC) against a panel of fungi; conditions: control compound amphotericin B
Experimental: (§3) In the microbroth dilution assay, microorganisms were selected by streaking a yeast culture on Sabouraud dextrose agar (SDA) incubating for 24-48 hours at 35°-37° C., thereafter selected 3 to 5 characteristic colonies and transferring to a fresh plate and incubating under similar conditions. From the regrowth, 3 to 5 colonies were selected and suspended in 10 milliliters of YM broth (Difco) and incubated for 4 hours at 35°-37° C. shaking at 225 rpm. The 4 hour broth cultures were adjusted optically to 86% transmission resulting in a concentration of 1-5×10^6 cfu/ml which was further diluted 1:100 in YNBD (yeast nitrogen base with 1% dextrose) to obtain a concentration of 1-5×10^4 cfu/ml for use as inocula. […]
(§4) The plates containing the diluted compounds were then inoculated with 75 μl/well of the appropriate microorganism and incubated for 48 hours at 35°-37° C. with MIC (minimum inhibitory concentration) determinations carried out after 24 hours of incubation (except Cryptococcus strains which are read at 48 hours). […]
(§5) After recording MICs at 24 hours, the microtiter plates were shaken gently to resuspend the cells. […] For Cryptococcus neoformans, SDA plates were inoculated at 48 hours after recording MICs and incubated 48 hours before reading the MFC. […]

[3] = tested on: Candida glabrata (MY1381); assay: broth microdilution assay (MIC/MFC), Candida glabrata (MY1381); conditions: Nakaseomyces glabratus
Experimental: as §3, §4, §5

[4] = tested on: Candida guillermondii (MY1019); assay: broth microdilution assay (MIC/MFC), Candida guillermondii (MY1019)
Experimental: as §3, §4, §5

[5] = tested on: Candida albicans (CLY539); assay: broth microdilution assay (MIC/MFC), Candida albicans (CLY539)
Experimental: as §3, §4, §5

[6] = tested on: Cryptococcus neoformans (MY2062); assay: broth microdilution assay (MIC/MFC), Cryptococcus neoformans (MY2062); conditions: 48 hours
Experimental: as §3, §4, §5

[7] = tested on: Aspergillus fumigatus (MY4839); assay: broth microdilution assay (MIC), Aspergillus fumigatus (MY4839); conditions: read-out: Minimum Inhibitory Concentration (MIC)
Experimental: as §1, §2

[8] = tested on: Candida tropicalis (MY1124); assay: broth microdilution assay (MIC/MFC), Candida tropicalis (MY1124)
Experimental: as §3, §4, §5

Candida krusei = assay: broth microdilution assay (MIC/MFC), Candida krusei; conditions: Pichia kudriavzevii
Experimental: as §3, §4, §5

[9] = tested on: Candida tropicalis (MY1012); assay: broth microdilution assay (MIC/MFC), Candida tropicalis (MY1012)
Experimental: as §3, §4, §5

Candida albicans (CA2) = assay: broth microdilution assay (MIC/MFC), Candida albicans (CA2)
Experimental: as §3, §4, §5

[10] = tested on: Candida albicans (MY1055); assay: broth microdilution assay (MIC/MFC), Candida albicans (MY1055)
Experimental: as §3, §4, §5

[11] = tested on: Candida pseudotropicalis (MY2099); assay: broth microdilution assay (MIC/MFC), Candida pseudotropicalis (MY2099); conditions: Kluyveromyces marxianus
Experimental: as §3, §4, §5

[12] = tested on: Cryptococcus neoformans (MY2061); assay: broth microdilution assay (MIC/MFC), Cryptococcus neoformans (MY2061); conditions: 48 hours, 35°-37° C., read-out: Minimum Inhibitory Concentration (MIC)
Experimental: as §3, §4, §5

[13] = tested on: Candida parapsilosis (MY1010); assay: broth microdilution assay (MIC/MFC), Candida parapsilosis (MY1010); conditions: Lodderomyces parapsilosis
Experimental: as §3, §4, §5

[14] = tested on: Saccharomyces cerevisiae (MY2140); assay: broth microdilution assay (MIC/MFC), Saccharomyces cerevisiae (MY2140)
Experimental: as §3, §4, §5

[15] = 24 hours, 35°-37° C., read-out: Minimum Inhibitory Concentration (MIC)
[16] = no growth or ≤4 colonies on SDA, read-out: Minimum Fungicidal Concentration (MFC)

`C=CC(CCCCC)C1=C(C(=O)C2C3C(C)CC(C(=O)OC)C(O)C3C(O)C2(O)C(=O)/C=C/C)C(=O)NC1=O` (centres unmarked) [Compound I] was tested, and the MIC [1] was 1 µg/mL (≈ 1.83 µM), the “inhibition of growth of filamentous fungi (inhibition zones)” value [2] was “effectively inhibit growth of the fungal organisms” and the “effectiveness against a panel of fungi (MIC and MFC) relative to amphotericin B” value (panel of fungi) was “effective at concentrations comparable to an established antifungal agent, amphotericin B”. For the same molecule, the MIC [3, 15] was 16 µg/mL (≈ 29.3 µM), the MFC [3, 16] was 32 µg/mL (≈ 58.6 µM) and the MIC [4, 15] was 2 µg/mL (≈ 3.67 µM). The MFC [4, 16] was 16 µg/mL (≈ 29.3 µM), the MIC [5, 15] was 0.06 µg/mL (≈ 0.11 µM) and the MFC [5, 16] was 0.125 µg/mL (≈ 0.229 µM). It also gave an MIC ([6]; 35°-37° C., read-out: Minimum Inhibitory Concentration (MIC)) of under 0.03 µg/mL, an MFC [6, 16] of under 0.03 µg/mL and an MIC [7] of under 0.03 µg/mL. The MIC [8, 15] was 4 µg/mL (≈ 7.33 µM), the MFC [8, 16] was 8 µg/mL (≈ 14.7 µM) and the MIC (Candida krusei; [15]) was 0.06 µg/mL (≈ 0.11 µM). It also gave an MFC (Candida krusei; [16]) of 0.5 µg/mL (≈ 0.916 µM), an MIC [9, 15] of 1 µg/mL (≈ 1.83 µM) and an MFC [9, 16] of 2 µg/mL (≈ 3.67 µM). For the same molecule, the MIC (Candida albicans (CA2); [15]) was 0.125 µg/mL (≈ 0.229 µM), the MFC (Candida albicans (CA2); [16]) was 0.25 µg/mL (≈ 0.458 µM) and the MIC [10, 15] was under 0.03 µg/mL. It also gave an MFC [10, 16] of 0.06 µg/mL (≈ 0.11 µM), an MIC [11, 15] of 2 µg/mL (≈ 3.67 µM) and an MFC [11, 16] of 4 µg/mL (≈ 7.33 µM). It also gave an MIC [12] of under 0.03 µg/mL, an MIC [13, 15] of under 0.03 µg/mL and an MFC [13, 16] of under 0.03 µg/mL. The MIC ([14]; Saccharomyces cerevisiae (MY2140), 24 hours, 35°-37° C., read-out: Minimum Inhibitory Concentration (MIC)) was 4 µg/mL (≈ 7.33 µM) and the MFC ([14]; Saccharomyces cerevisiae, read-out: Minimum Fungicidal Concentration (MFC)) was 0.5 µg/mL (≈ 0.916 µM).
